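These data come from cells grown in 96-well plates and exposed to compound for 48 hours at five concentrations. GI50 = concentration required for 50% inhibition of growth.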 Activity calls are given as the source filed them. No stated cut-off is given here; in the data, active = GI50 up to about 1.1 µM and inactive = higher.
Columns and labels:
Test in all cases: inhibition of tumour cell growth, NCI panel, 48 h
A498 = test system: A498
NCI-H460 = test system: NCI-H460
NCI-H226 = test system: NCI-H226
HCT-15 = test system: HCT-15
Malme-3M = test system: Malme-3M
MDA-N = test system: MDA-N
K562 = test system: K562
OVCAR-8 = test system: OVCAR-8
SK-MEL-28 = test system: SK-MEL-28
PC-3 = test system: PC-3
MDA-MB-435 = test system: MDA-MB-435
NCI-H23 = test system: NCI-H23
SF-295 = test system: SF-295
A549 = test system: A549
HL-60 = test system: HL-60
UACC-62 = test system: UACC-62
NCI-H522 = test system: NCI-H522
OVCAR-3 = test system: OVCAR-3
786-0 = test system: 786-0
HT-29 = test system: HT-29

Row | Structure (SMILES) | GI50 (A498) | GI50 (NCI-H460) | GI50 (NCI-H226) | GI50 (HCT-15) [µM] | GI50 (Malme-3M) | GI50 (MDA-N) | GI50 (K562) | GI50 (OVCAR-8) | GI50 (SK-MEL-28) | GI50 (PC-3) | GI50 (MDA-MB-435) | GI50 (NCI-H23) | GI50 (SF-295) | GI50 (A549) | GI50 (HL-60) | GI50 (UACC-62) | GI50 (NCI-H522) | GI50 (OVCAR-3) | GI50 (786-0) | GI50 (HT-29)
1 | CC(C)(Oc1ccc(-c2cccc3ccccc23)cc1)C(=O)O | > 100 µM (inactive) | > 100 µM (inactive) | > 100 µM (inactive) | 77.3 | > 100 µM (inactive) | > 100 µM (inactive) | 1.3 µM (inactive) | > 100 µM (inactive) | > 100 µM (inactive) | > 100 µM (inactive) | > 100 µM (inactive) | > 100 µM (inactive) | 60.4 µM (inactive) | 59.6 µM (inactive) | 3.86 µM (inactive) | > 100 µM (inactive) | > 100 µM (inactive) | > 100 µM (inactive) | > 100 µM (inactive) | > 100 µM (inactive)
2 | CCOC(=O)C(=O)C(/C(=N/N(C)C)C(=O)Nc1ccc(C)cc1C)c1nc2ccccc2nc1O (stereo not given) | > 100 µM (inactive) | > 100 µM (inactive) | > 100 µM (inactive) | > 100 | > 100 µM (inactive) | > 100 µM (inactive) | > 100 µM (inactive) | > 100 µM (inactive) | > 100 µM (inactive) | > 100 µM (inactive) | > 100 µM (inactive) | > 100 µM (inactive) | > 100 µM (inactive) | > 100 µM (inactive) | > 100 µM (inactive) | > 100 µM (inactive) | > 100 µM (inactive) | > 100 µM (inactive) | > 100 µM (inactive) | > 100 µM (inactive)
3 | Cc1cc2c(cc1Cl)SC(NNc1cnc3ccccc3n1)=NS2(=O)=O | 22.8 µM (inactive) | 33.8 µM (inactive) | 44.4 µM (inactive) | 75.2 | 22.6 µM (inactive) | 90.2 µM (inactive) | 73.3 µM (inactive) | 68.5 µM (inactive) | 60.5 µM (inactive) | 35.4 µM (inactive) | > 100 µM (inactive) | > 100 µM (inactive) | 29.9 µM (inactive) | 78.9 µM (inactive) | > 100 µM (inactive) | 60.7 µM (inactive) | > 100 µM (inactive) | 47.4 µM (inactive) | 38.3 µM (inactive) | > 100 µM (inactive)
4 | COC(=O)C1=C(OC)[C@H]2C#C/C=C\C#C[C@@H]3Nc4c(cc(O)c5c4C(=O)c4ccccc4C5=O)[C@]24O[C@@]34[C@H]1C | < 0.01 µM (active) | < 0.01 µM (active) | < 0.01 µM (active) | < 0.01 | < 0.01 µM (active) | < 0.01 µM (active) | < 0.01 µM (active) | < 0.01 µM (active) | < 0.0229 µM (active) | < 0.01 µM (active) | < 0.01 µM (active) | < 0.01 µM (active) | < 0.01 µM (active) | < 0.01 µM (active) | < 0.01 µM (active) | < 0.01 µM (active) | < 0.01 µM (active) | < 0.0153 µM (active) | < 0.01 µM (active) | < 0.01 µM (active)
5 | O=C1OC(C2Cc3cc4c(cc3C2=O)CCC4)c2ccccc21 (stereo not given) | 25.9 µM (inactive) | 40 µM (inactive) | 20.6 µM (inactive) | 34.3 | > 100 µM (inactive) | 75.3 µM (inactive) | 33.6 µM (inactive) | 67.1 µM (inactive) | 38.5 µM (inactive) | 30.3 µM (inactive) | 40.3 µM (inactive) | 47.1 µM (inactive) | 74.5 µM (inactive) | 44.7 µM (inactive) | 42.9 µM (inactive) | 20.7 µM (inactive) | 50.4 µM (inactive) | 77.6 µM (inactive) | 80 µM (inactive) | 30.6 µM (inactive)
6 | CC1=CC[C@@]2(CO)[C@@H]([C@@H]1C)[C@H]1CC[C@@H]3[C@@]4(C)CC[C@H](O)C(C)(C)[C@@H]4CC[C@@]3(C)[C@]1(C)C[C@@H]2O | 24 µM (inactive) | 16.3 µM (inactive) | 27.2 µM (inactive) | 46.3 | 20.3 µM (inactive) | 81.7 µM (inactive) | 45.7 µM (inactive) | 14.3 µM (inactive) | 43.9 µM (inactive) | 13.3 µM (inactive) | 40.2 µM (inactive) | 17.5 µM (inactive) | 17 µM (inactive) | 15.9 µM (inactive) | 11.7 µM (inactive) | 20.9 µM (inactive) | 8.91 µM (inactive) | 31.5 µM (inactive) | 24.5 µM (inactive) | 29.8 µM (inactive)
7 | O=C1CCC2C(O)c3cc4c(cc3C(c3ccc5c(c3)OCO5)N12)OCO4 (stereo not given) | > 100 µM (inactive) | > 100 µM (inactive) | 67.9 µM (inactive) | > 100 | > 100 µM (inactive) | > 100 µM (inactive) | > 100 µM (inactive) | 35.6 µM (inactive) | > 100 µM (inactive) | > 100 µM (inactive) | > 100 µM (inactive) | > 100 µM (inactive) | 49.2 µM (inactive) | > 100 µM (inactive) | > 100 µM (inactive) | > 100 µM (inactive) | 89.5 µM (inactive) | > 100 µM (inactive) | 82 µM (inactive) | > 100 µM (inactive)
8 | Cc1ccc2c(=O)c(C(=O)N(CCO)CCO)c[nH]c2n1 | > 100 µM (inactive) | > 100 µM (inactive) | > 100 µM (inactive) | > 100 | > 100 µM (inactive) | > 100 µM (inactive) | > 100 µM (inactive) | > 100 µM (inactive) | > 100 µM (inactive) | > 100 µM (inactive) | > 100 µM (inactive) | > 100 µM (inactive) | > 100 µM (inactive) | > 100 µM (inactive) | > 100 µM (inactive) | > 100 µM (inactive) | > 100 µM (inactive) | > 100 µM (inactive) | > 100 µM (inactive) | > 100 µM (inactive)
9 | Cc1c2ccccc2c(C2C3C(=O)N(c4ccc(Br)cc4)C(=O)C3ON2C(C(N)=O)c2ccccc2)c2ccccc12 (stereo not given) | 2.98 µM (inactive) | 3.56 µM (inactive) | 5.3 µM (inactive) | 3.88 | 3.78 µM (inactive) | 4.86 µM (inactive) | 4.11 µM (inactive) | 6.78 µM (inactive) | 17.9 µM (inactive) | 4.86 µM (inactive) | 3.13 µM (inactive) | 5.56 µM (inactive) | 6.59 µM (inactive) | 3.64 µM (inactive) | 3.81 µM (inactive) | 9.35 µM (inactive) | 2.79 µM (inactive) | 3.01 µM (inactive) | 5.5 µM (inactive) | 2.58 µM (inactive)
10 | C[N+](C)(CCCn1ccnc1[N+](=O)[O-])CCCn1ccnc1[N+](=O)[O-] | > 100 µM (inactive) | > 100 µM (inactive) | > 100 µM (inactive) | > 100 | > 100 µM (inactive) | > 100 µM (inactive) | > 100 µM (inactive) | > 100 µM (inactive) | > 100 µM (inactive) | > 100 µM (inactive) | > 100 µM (inactive) | > 100 µM (inactive) | > 100 µM (inactive) | > 100 µM (inactive) | > 100 µM (inactive) | > 100 µM (inactive) | > 100 µM (inactive) | > 100 µM (inactive) | > 100 µM (inactive) | > 100 µM (inactive)
